Experimental data taken from patent publication US8497371B2, “Pipemidic acid derivative autotaxin inhibitors” (University of Memphis Research Foundation, priority 2009, dated 2013).

Legend:
Assay type in all cases: biochemical
[1] = molecular target: ATX (Homo sapiens, UniProt Q13822); assay: ATX inhibition assay with FS-3 substrate; set-up: conditioned serum-free medium (CCM) from MDA-MB-435 cells as the source of ATX; endogenous in cells; host or cells: MDA-MB-435 cells (about 10x concentrated serum-free conditioned medium); conditions: for % Response at 10 μM (FS-3): 10 μM compound, FS-3 hydrolysis normalized to vehicle control (low = strong inhibition), mean ± S.D.; for single dose response comparison by aromatic substituent and position: Table 2, same values as % Response at 10 μM
Method: ATX inhibition was assayed using the substrate FS-3 (Echelon Biosciences, Inc., Salt Lake City, Utah, USA). The FS-3 assay used ˜10 times concentrated conditioned serum-free medium (CCM) from MDA-MB-435 cells as the source of ATX, while CCM comprised one-third of the total volume.
All assays were performed in 96-well plates with data read at 1 minute intervals by a Synergy2 system (BioTek, Winooski, Vt.). […] Results are shown at one hour, at which point all fluorescence and absorbance changes as a function of time were linear. All readings were normalized to vehicle control after subtraction of fluorescence in the absence of CCM. Data are shown as the mean±S.D. of at least three wells. All experiments were repeated at least twice and results are shown.

[2] = molecular target: T1, human NPP6 (Homo sapiens, UniProt Q6UWR7); assay: Determination of NPP6 inhibition (pNPPC substrate); conditions: 10 μM inhibitor
T1 construct: transfected with human NPP6ex^51 or human NPP7ex expression plasmids; made in house; host or cells: HEK293 cells, transient transfection, pcDNA3.1(+); unconcentrated conditioned medium (CM)
T1 sequence (Q6UWR7 23-419 limits assumed): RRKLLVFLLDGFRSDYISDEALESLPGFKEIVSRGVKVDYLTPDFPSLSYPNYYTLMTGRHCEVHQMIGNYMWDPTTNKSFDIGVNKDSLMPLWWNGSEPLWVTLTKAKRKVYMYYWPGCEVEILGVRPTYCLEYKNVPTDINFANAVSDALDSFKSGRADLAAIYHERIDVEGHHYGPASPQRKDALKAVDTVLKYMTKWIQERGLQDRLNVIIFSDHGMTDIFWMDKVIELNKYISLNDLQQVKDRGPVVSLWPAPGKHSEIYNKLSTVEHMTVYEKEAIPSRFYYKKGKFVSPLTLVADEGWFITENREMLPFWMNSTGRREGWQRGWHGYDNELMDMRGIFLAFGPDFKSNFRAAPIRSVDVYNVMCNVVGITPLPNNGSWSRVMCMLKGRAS
Method: (§1) Inhibitor selectivity was assayed using p-nitrophenylphosphoryl-choline (pNPPC) (Sigma-Aldrich, St. Louis, Mo.) as substrate for NPP6 and NPP7. The final volume (60 μL) included 20 μL (CM, NPP6 or CCM, NPP7, 20 μL inhibitor (10 μM including 1% DMSO) in assay buffer, and 20 μL pNPPC (10 mM, NPP6 or 1 NPP7) in assay buffer. NPP6 assay buffer contained 500 mM NaCl, 0.05% Triton X-100, 100 mM Tris-HCl (pH 9.0), whereas NPP7 assay buffer was comprised of 50 mM Tris HCl, pH 8.5, 150 mM NaCl, and 10 mM taurocholic acid. However, unlike the published methods, EDTA was not added to the NPP7 assay buffer. All assays were performed in 96-well, half area plates (Corning Inc., Lowell, Mass.) at 37° C. with data collected at 2 minute intervals using a Synergy2 absorbance plate reader (BioTek, Winooski, Vt.). Results are shown at the one hour time point, when all absorbance changes as a function of time were linear. Readings were normalized to vehicle control after subtraction of absorbance in the absence of CM or CCM. Data are shown as the mean±S.D. of at least three wells. All experiments were repeated twice and representative results are shown.
(§2) Assays were performed with CM or CCM from HEK293 cells transiently transfected with NPP6 and 7 expression plasmids, respectively. HEK293 cells were seeded in Dulbecco's modified Eagle's medium (DMEM) containing 10% fetal bovine serum, 100 U/ml penicillin, 100 μg/ml streptomycin (Hyclone, Logan, Utah), and 2 mM L-glutamine. HEK293 cells were grown overnight at 37° C. under 5% CO2 to 80% confluence. The cells were then transfected with human NPP6ex^51 or human NPP7ex expression plasmids in the pcDNA3.1(+) mammalian vector in the presence of Polyfect Transfection Reagent (Hyclone, Logan, Utah). Six hours after transfection, the culture medium was changed to serum free DMEM containing L-glutamine and cells were incubated for 48 hours. Expressed protein was collected (NPP6 and NPP7) and concentrated ˜10×(NPP7) using 10 kDa molecular weight cutoff filters (Millipore, Beverly, Mass.) in an Amicon pressure cell (Millipore, Beverly, Mass.).

[3] = molecular target: T2, human NPP7 (Homo sapiens, UniProt Q6UWV6); assay: Determination of NPP7 inhibition (pNPPC substrate); conditions: 10 μM inhibitor
T2 construct: transfected with human NPP6ex^51 or human NPP7ex expression plasmids; made in house; host or cells: HEK293 cells, transient transfection, pcDNA3.1(+); conditioned medium concentrated about 10x (CCM)
T2 sequence (Q6UWV6 22-433 limits assumed): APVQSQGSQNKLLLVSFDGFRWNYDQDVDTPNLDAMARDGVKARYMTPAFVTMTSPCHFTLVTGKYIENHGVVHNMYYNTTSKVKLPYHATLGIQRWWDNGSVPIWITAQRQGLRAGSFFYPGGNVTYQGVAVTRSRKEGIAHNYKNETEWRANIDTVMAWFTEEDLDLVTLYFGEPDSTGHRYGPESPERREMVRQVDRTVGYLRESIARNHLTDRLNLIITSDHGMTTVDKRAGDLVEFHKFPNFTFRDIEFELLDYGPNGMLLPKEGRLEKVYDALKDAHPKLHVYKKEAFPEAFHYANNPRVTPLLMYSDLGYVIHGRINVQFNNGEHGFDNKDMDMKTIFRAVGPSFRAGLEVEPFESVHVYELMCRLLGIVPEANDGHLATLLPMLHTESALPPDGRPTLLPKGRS
Method: as §1, §2

Compound	% Response at 10 μM (FS-3) [1] [%]	single dose response comparison by aromatic substituent and position [1]	further results
2-(4-{[(4-dimethylaminonapthylphenyl)amino]carbonothioyl}-1-piperazinyl)-8-ethyl-5-oxo-5,8-dihydropyrido[2,3-d]pyrimidine-6-carboxylic acid [Compound 2]	59.9 ± 1.5		
CCn1cc(C(=O)O)c(=O)c2cnc(N3CCN(C(=S)Nc4ccc(C(=O)O)cc4)CC3)nc21 [Compound 4, 2-(4-{[(4-carboxylphenyl)amino]carbonothioyl}-1-piperazinyl)-8-ethyl-5-oxo-5,8-dihydropyrido[2,3-d]pyrimidine-6-carboxylic acid]	72.7 ± 2.2		
CCn1cc(C(=O)O)c(=O)c2cnc(N3CCN(C(=S)Nc4ccccc4C(=O)OC)CC3)nc21 [Compound 5, 2-(4-{[(2-methylesterphenyl)amino]carbonothioyl}-1-piperazinyl)-8-ethyl-5-oxo-5,8-dihydropyrido[2,3-d]pyrimidine-6-carboxylic acid]	51.2 ± 1.3		
CCn1cc(C(=O)O)c(=O)c2cnc(N3CCN(C(=S)Nc4ccc(S(=O)(=O)N5CCOCC5)cc4)CC3)nc21 [Compound 6, 2-(4-{[(4-morpholinosulfonylphenyl)amino]carbonothioyl}-1-piperazinyl)-8-ethyl-5-oxo-5,8-dihydropyrido[2,3-d]pyrimidine-6-carboxylic acid]	64.1 ± 2.8		
CCn1cc(C(=O)O)c(=O)c2cnc(N3CCN(C(=S)Nc4c(C)cc(C)cc4C)CC3)nc21 [Compound 8, 2-(4-{[(2,4,6-mesitylphenyl)amino]carbonothioyl}-1-piperazinyl)-8-ethyl-5-oxo-5,8-dihydropyrido[2,3-d]pyrimidine-6-carboxylic acid]	53.5 ± 1.6		
CCn1cc(C(=O)O)c(=O)c2cnc(N3CCN(C(=S)Nc4ccc(-n5cccn5)cc4)CC3)nc21 [Compound 9, 2-(4-{[(4-pyrazolephenyl)amino]carbonothioyl}-1-piperazinyl)-8-ethyl-5-oxo-5,8-dihydropyrido[2,3-d]pyrimidine-6-carboxylic acid]	68.6 ± 1.1		
CCn1cc(C(=O)O)c(=O)c2cnc(N3CCN(C(=S)Nc4ccccc4-c4cccc5nsnc45)CC3)nc21 [Compound 10, 2-(4-{[(2-benzothiadiazolphenyl)amino]carbonothioyl}-1-piperazinyl)-8-ethyl-5-oxo-5,8-dihydropyrido[2,3-d]pyrimidine-6-carboxylic acid]	63.2 ± 2.8		
CCn1cc(C(=O)O)c(=O)c2cnc(N3CCN(C(=S)Nc4ccccc4C(F)(F)F)CC3)nc21 [Compound 12, 2-(4-{[(2-trifluoromethylphenyl)amino]carbonothioyl}-1-piperazinyl)-8-ethyl-5-oxo-5,8-dihydropyrido[2,3-d]pyrimidine-6-carboxylic acid]	100.8 ± 1.9	100.8 ± 1.9	

The next lines start with results.

% Response at 10 μM (FS-3) [1] [%]	single dose response comparison by aromatic substituent and position [1]	Compound	further results
72.3 ± 0.4		CCn1cc(C(=O)O)c(=O)c2cnc(N3CCN(C(=S)Nc4cccc(Cl)c4Cl)CC3)nc21 [Compound 15, 2-(4-{[(2,3-dichlorophenyl)amino]carbonothioyl}-1-piperazinyl)-8-ethyl-5-oxo-5,8-dihydropyrido[2,3-d]pyrimidine-6-carboxylic acid]	
56.4 ± 1.0		CCn1cc(C(=O)Oc2ccccc2)c(=O)c2cnc(N3CCN(C(=S)Nc4ccccc4)CC3)nc21 [Compound 16, 2-(4-{[(phenyl)amino]carbonothioyl}-1-piperazinyl)-8-ethyl-5-oxo-5,8-dihydropyrido[2,3-d]pyrimidine-6-carboxylic acid phenyl]	
83.5 ± 8.2	83.5 ± 8.2	CCn1cc(C(=O)O)c(=O)c2cnc(N3CCN(C(=S)Nc4ccccc4Cl)CC3)nc21 [Compound 17, 2-(4-{[(2-chlorophenyl)amino]carbonothioyl}-1-piperazinyl)-8-ethyl-5-oxo-5,8-dihydropyrido[2,3-d]pyrimidine-6-carboxylic acid]	
40.9 ± 1.3	40.9 ± 1.3	CCn1cc(C(=O)O)c(=O)c2cnc(N3CCN(C(=S)Nc4cccc(OC)c4)CC3)nc21 [Compound 19, 2-(4-{[(3-methoxyphenyl)amino]carbonothioyl}-1-piperazinyl)-8-ethyl-5-oxo-5,8-dihydropyrido[2,3-d]pyrimidine-6-carboxylic acid]	effect on activity of NPP6 [2]: None of the compounds affected the activity; effect on activity of NPP7 [3]: None of the compounds affected the activity; IC50 ([1]; FS-3 substrate): 17.7 ± 0.3 µM; inhibition at 10 µM ([1]; single dose 10 μM, % inhibition, read-out: inhibition of ATX-mediated hydrolysis of FS-3): ≥ 50%
97.6 ± 1.8	97.6 ± 1.8	CCn1cc(C(=O)O)c(=O)c2cnc(N3CCN(C(=S)Nc4ccccc4OC)CC3)nc21 [Compound 21, 2-(4-{[(2-methoxyphenyl)amino]carbonothioyl}-1-piperazinyl)-8-ethyl-5-oxo-5,8-dihydropyrido[2,3-d]pyrimidine-6-carboxylic acid]	
79.7 ± 0.9	79.7 ± 0.9	CCn1cc(C(=O)O)c(=O)c2cnc(N3CCN(C(=S)Nc4ccc(OC)cc4)CC3)nc21 [Compound 24, 2-(4-{[(4-methoxyphenyl)amino]carbonothioyl}-1-piperazinyl)-8-ethyl-5-oxo-5,8-dihydropyrido[2,3-d]pyrimidine-6-carboxylic acid]	
68.4 ± 1.3	68.4 ± 1.3	CCn1cc(C(=O)O)c(=O)c2cnc(N3CCN(C(=S)Nc4ccccc4I)CC3)nc21 [Compound 26, 2-(4-{[(2-iodophenyl)amino]carbonothioyl}-1-piperazinyl)-8-ethyl-5-oxo-5,8-dihydropyrido[2,3-d]pyrimidine-6-carboxylic acid]	
77.3 ± 1.6	77.3 ± 1.6	CCn1cc(C(=O)O)c(=O)c2cnc(N3CCN(C(=S)Nc4ccccc4F)CC3)nc21 [Compound 30, 2-(4-{[(2-fluorophenyl)amino]carbonothioyl}-1-piperazinyl)-8-ethyl-5-oxo-5,8-dihydropyrido[2,3-d]pyrimidine-6-carboxylic acid]	
